{
  "source": "patent US10722547B2",
  "about": "“Compositions of medicinal plants for reducing the effects of aging, prevention and treatment of age-related neurodegenerative diseases, and treatment of anxiety and sleep disorders” (PharmacoGenetics Limited, priority 2016, dated 2020)",
  "key": {"D-galactose treated mice": {"tested_on": "D-galactose treated mice", "test": "Loss of whiskers induced by D-galactose treatment", "type": "in vivo, male ICR mice", "conditions": "D-galactose 150 mg/kg daily with or without 120 mg/kg oral extract, 8 weeks; N=12 mice/group", "procedure": "Chronic exposure to D-galactose is a widely studied aging model that causes shortened lifespan in Drosophila and housefly (Jordens et al 1999; Cui et al 2004), and brings about spatial memory deficit, degeneration in the hippocampus and increased oxidative damage in a D-galactose-induced accelerated-aging model of the mouse (Cui et al 2006). […] In the present study, this D-galactose model was applied to 10 week old male ICR mice (n=8-12 per group). The mice were administered daily with 150 mg/kg D-galactose by subcutaneous injection, accompanied by either daily oral administration of the vehicle (0.9% NaCl) in the D-galactose treated control group (“D-gal”), or daily oral administration of one of the BYPA, BYP, BYA, BPA, YPA, BY, BP and YP herbal extracts (120 mg/kg), for an exposure period of 8 weeks. […] The resultant levels of accelerated aging in the D-gal group, the various herbal extract-treatment groups, and the Veh group were assessed at the end of the 8-week exposure period based on five criteria: (i) body weight; (ii) deficit in spatial memory in the Y-maze test; (iii) levels of the pro-inflammatory cytokine TNF-alpha in the brain; (iv) levels of the pro-inflammatory cytokine IL-6 in the brain; and (v) levels of the oxidative stress marker MDA in the brain. […]"}, "[1]": {"tested_on": "D-galactose treated animals", "conditions": "cited from earlier work"}, "mice [2]": {"tested_on": "mice", "test": "Step-through passive avoidance test", "type": "in vivo, male ICR mice", "conditions": "diazepam at 1 or 3 mg/kg oral; p<0.001 vs vehicle", "procedure": "Step-through passive avoidance test. Mice randomly separated into groups (n=15−20/group) were orally administered with vehicle (“Veh”, viz. 0.9% NaCl), 1 or 3 mg/kg DZ, or 120 mg/kg of one of the one-, two-, three- or four-herb extracts 35 minutes prior to training trials. The apparatus consisted of a two-chamber box (from Chinese Academy of Chinese Medical Science, Beijing) with one of the chambers being opaque (darkened) and the other transparent (lighted). In the training trials, each mouse was placed into the lighted chamber, and the door connecting the lighted and darkened chambers was opened 10 seconds later. […] In the actual test, after the mouse entered the darkened chamber, the door was closed and a 2-second electric foot shock of 0.4 mA was delivered through the grid floor. Ten seconds later the mouse was transferred from the darkened chamber back to its home cage. After an interval of 24 hours, it was returned to the lighted chamber. The door to the darkened chamber was opened 10 seconds later, and the time taken for the mouse to enter the darkened chamber was recorded as the ‘step-through latency’, with cut-off set at 300 seconds. A significant decrease in step-through latency observed with any group of animals compared to Veh-treated controls was indicative of impaired […] in the form of anterograde amnesia (Nazari-Serenj eh et al, 2011)."}, "mice [3]": {"tested_on": "mice", "test": "Locomotor activity test", "type": "in vivo, male ICR mice", "conditions": "3 mg/kg diazepam oral; p<0.001 vs vehicle", "procedure": "Locomotor activity test. Following the elevated plus-maze and holeboard tests, the Veh-treated mice, DZ-treated mice and variously herbal extract-treated mice were assessed for locomotor activity by means of the ZIL-2 apparatus (Beijing Institute of Materia Medica). The test apparatus, with dimensions of 60 cm×60 cm×12 cm, consisted of a transparent plastic cylindrical box equipped with three evenly spaced infrared beams with photodetectors. The number of transitions made across the infrared beams was recorded automatically over a period of 5 minutes. An increase or decrease in the number of transitions indicated a corresponding increase or decrease in the level of locomotor activity (Hui et al, 2002)."}, "mice [4]": {"tested_on": "mice", "test": "Rotarod test", "type": "in vivo, male ICR mice", "conditions": "diazepam at 1 or 3 mg/kg oral; p<0.001 vs vehicle", "procedure": "Rotarod test. Mice randomly separated into groups (n=15−20/group) were orally administered 35 minutes prior to the rotarod test with vehicle (“Veh”, viz. 0.9% NaCl), 1 or 3 mg/kg DZ, or 120 mg/kg of one of the one-, two-, three- or four-herb extracts. The rotarod test for muscle coordination was performed using a custom-built apparatus consisted of a cylinder (2.5 cm diameter) with a textured surface placed 0.5 m above the ground. Prior to oral Veh, DZ or herbal extract administration, the mice were first trained to stay for 2 min on the rotarod revolving at 16 rpm. In the test, the effect of Veh, DZ or herbal extract treatment was examined by placing the mouse on the rotarod and recording the length of time it managed to stay on the rotarod, with cut-off set at 2 min."}},
  "data": [
    {"smiles": "O=C[C@H](O)[C@@H](O)[C@@H](O)[C@H](O)CO", "note": "[D-gal, D-galactose]", "values": [
      {"measurement": "Loss of whiskers (% mice) 0 (no loss of whiskers)", "setting": "D-galactose treated mice", "value": 50, "unit": "% mice"},
      {"measurement": "Loss of whiskers (% mice) + (loss of whiskers)", "setting": "D-galactose treated mice", "value": 50, "unit": "% mice"}
    ]},
    {"smiles": "O=C(O)CCCC[C@@H]1CCSS1", "note": "[R-α-lipoic acid]", "values": [
      {"measurement": "cognitive dysfunction and neurodegeneration", "setting": "[1]; 100 mg/kg i.p., Cui 2006", "value": "can ameliorate"}
    ]},
    {"smiles": "C[C@H]1[C@H](C)CC[C@]2(C(=O)O)CC[C@]3(C)C(=CC[C@@H]4[C@@]5(C)C[C@@H](O)[C@H](O)[C@@](C)(CO)[C@@H]5CC[C@]43C)[C@H]12", "note": "[asiatic acid]", "values": [
      {"measurement": "elevated levels of brain ROS, TNF-alpha and IL-6", "setting": "[1]; oral, 10 or 20 mg/kg, Chao et al 2015", "value": "can reduce"}
    ]},
    {"smiles": "CN1C(=O)CN=C(c2ccccc2)c2cc(Cl)ccc21", "note": "[diazepam, Diazepam]", "values": [
      {"measurement": "step-through latency (anterograde amnesia)", "setting": "mice [2]", "value": "significant anterograde amnesia"},
      {"measurement": "locomotor activity", "setting": "mice [3]", "value": "significant reduction"},
      {"measurement": "time of stay on the moving rotarod (muscle coordination)", "setting": "mice [4]", "value": "significant reduction"}
    ]},
    {"smiles": "CC(C)=CCC[C@](C)(O[C@@H]1O[C@H](CO)[C@@H](O)[C@H](O)[C@H]1O)[C@H]1CC[C@]2(C)[C@@H]1[C@H](O)C[C@@H]1[C@@]3(C)CC[C@H](O)C(C)(C)[C@@H]3[C@@H](O[C@@H]3O[C@H](CO)[C@@H](O)[C@H](O)[C@H]3O)C[C@]12C", "note": "[ginsenoside Rg1]", "values": [
      {"measurement": "cognitive impairment and hippocampus senescence", "setting": "[1]; 20 mg/kg i.p., Zhu et al 2014", "value": "can prevent"}
    ]}
  ]
}
